Where no end group is shown, it is not given here.

What all share (assay type): cell-based
Assay [1] deals with primary umbilical cord-derived mesenchymal stem cells. Put plainly: Content of exosomal RNA (NanoDrop). As to conditions: for Exosomal RNA, yield per 10^6 cells: then 72 h exosome-free FBS medium. The procedure: (§1) In a culture medium [high glucose DMEM (Gibco, Cat no. 11995-065); 10% fetal bovine serum (HyClone), 1% MEM non-essential amino acids solution (100×) (Gibco, Cat no. 11140-050)] containing 20 nM of exendin-4, primary umbilical cord-derived mesenchymal stem cells (ATCC No. PCS-500-010; Lot No. 63822428) were cultured for one week.
(§2) After completion of culturing, the mesenchymal stem cells pretreated with exendin-4 were washed and additionally cultured for 72 hours in a culture medium supplemented with 10% fetal bovine serum (FBS) free of exosomes. The reason of employing exosome-free FBS was to prevent FBS-derived exosomes other than those secreted from the cells from being incorporated because generally used FBS contained a large amount of exosomes derived from bovine serum.
(§3) After 72 hours of culturing, the culture medium in which the pretreated mesenchymal stem cells were cultured was taken and centrifuged at 300×g for 10 min to remove residual cells and cell debris. The supernatant was filtered through a 0.22 μm filter, followed by centrifugation at 10,000×g and 4° C. for 70 min in a high-speed centrifuge. The supernatant thus obtained was subjected again to ultracentrifugation at 100,000×g and 4° C. for 90 min. The exosomes obtained as a pellet were diluted in PBS (phosphate buffered saline) before use in the following experiments.
(§4) In a culture medium [high glucose DMEM (Gibco, Cat no. 11995-065); 10% fetal bovine serum (HyClone), 1% MEM non-essential amino acids solution (100×) (Gibco, Cat no. 11140-050)] containing 10 nM of PMA, primary umbilical cord-derived mesenchymal stem cells (ATCC No. PCS-500-010; Lot No. 63822428) were cultured for one week.
(§5) After completion of culturing, the mesenchymal stem cells pretreated with PMA were washed and additionally cultured for 72 hours in a culture medium supplemented with 10% fetal bovine serum (FBS) free of exosomes. The reason of employing exosome-free FBS was to prevent FBS-derived exosomes other than those secreted from the cells from being incorporated because generally used FBS contained a large amount of exosomes derived from bovine serum.
(§6) In a culture medium [high glucose DMEM (Gibco, Cat no. 11995-065); 10% fetal bovine serum (HyClone), 1% MEM non-essential amino acids solution (100×) (Gibco, Cat no. 11140-050)] containing 10 ng/mL interferon-γ, primary umbilical cord-derived mesenchymal stem cells (ATCC No. PCS-500-010; Lot No. 63822428) were cultured for one week.
(§7) After completion of culturing, the mesenchymal stem cells pretreated with interferon-γ were washed and additionally cultured for 72 hours in a culture medium supplemented with 10% fetal bovine serum (FBS) free of exosomes. The reason of employing exosome-free FBS was to prevent FBS-derived exosomes other than those secreted from the cells from being incorporated because generally used FBS contained a large amount of exosomes derived from bovine serum.
(§8) In a culture medium [high glucose DMEM (Gibco, Cat no. 11995-065); 10% fetal bovine serum (HyClone), 1% MEM non-essential amino acids solution (100×) (Gibco, Cat no. 11140-050)] containing 10 μM of tetrandrine, primary umbilical cord-derived mesenchymal stem cells (ATCC No. PCS-500-010; Lot No. 63822428) were cultured for one week.
(§9) After completion of culturing, the mesenchymal stem cells pretreated with tetrandrine were washed and additionally cultured for 72 hours in a culture medium supplemented with 10% fetal bovine serum (FBS) free of exosomes. The reason of employing exosome-free FBS was to prevent FBS-derived exosomes other than those secreted from the cells from being incorporated because generally used FBS contained a large amount of exosomes derived from bovine serum. […]

For assay [2] the test system is unchanged. Put plainly: Content of exosomal protein (Bradford analysis, 595 nm). The note with it: for Exosomal protein, yield per 10^6 cells: then 72 h exosome-free FBS medium. The procedure: as §1, §2, §3, §4, §5, §6, §7, §8, §9
Assay [3] has the same test system. Put plainly: Number of exosomes by nanoparticle tracking assay (NanoSight NS300). The note with it: for No. of exosome particles, yield per 10^6 cells: then 72 h exosome-free FBS medium. As to the method:
as §1, §2, §3, §4, §5, §6, §7, §8, §9

Assay [4] shares this test system. Put plainly: Stem cell proliferation (CCK, absorbance 450 nm) after pretreatment. The note with it: 24 h culture, CCK 4 h. As to the method:
as §1, §4, §6, §8
(§10) In a culture medium [high glucose DMEM (Gibco, Cat no. 11995-065); 10% fetal bovine serum (HyClone), 1% MEM non-essential amino acids solution (100×) (Gibco, Cat no. 11140-050)] containing 10 μg/mL hyaluronic acid, primary umbilical cord-derived mesenchymal stem cells (ATCC No. PCS-500-010; Lot No. 63822428) were cultured for one week.
(§11) In a culture medium [high glucose DMEM (Gibco, Cat no. 11995-065); 10% fetal bovine serum (HyClone), 1% MEM non-essential amino acids solution (100×) (Gibco, Cat no. 11140-050)] containing 30 nM of substance P, primary umbilical cord-derived mesenchymal stem cells (ATCC No. PCS-500-010; Lot No. 63822428) were cultured for one week.
(§12) In a culture medium [high glucose DMEM (Gibco, Cat no. 11995-065); 10% fetal bovine serum (HyClone), 1% MEM non-essential amino acids solution (100×) (Gibco, Cat no. 11140-050)] containing 10 nM of resveratrol, primary umbilical cord-derived mesenchymal stem cells (ATCC No. PCS-500-010; Lot No. 63822428) were cultured for one week.
(§13) In a culture medium [high glucose DMEM (Gibco, Cat no. 11995-065); 10% fetal bovine serum (HyClone), 1% MEM non-essential amino acids solution (100×) (Gibco, Cat no. 11140-050)] containing 10 μM of lanifibranor, primary umbilical cord-derived mesenchymal stem cells (ATCC No. PCS-500-010; Lot No. 63822428) were cultured for one week.
(§14) Mesenchymal stem cells and the exendin-4-pretreated mesenchymal stem cells of the Example were each seeded at a density of 3,000 cells/well into 96-well plates containing 100 μL of a culture medium [high glucose DMEM (Gibco, Cat no. 11995-065), 10% fetal bovine serum (HyClone), 1% MEM non-essential amino acids solution (100×) (Gibco, Cat no. 11140-050)] per well and cultured for 24 hours in a CO2 incubator. Then, CCK solution (10 μL/well) was added, and incubation was continued for 4 hours in the CO2 incubator, followed by reading absorbance at a wavelength of 450 nm (420-480 nm) to determine proliferation.
as §14, with “PMA-pretreated” for “exendin-4-pretreated”, “proliferation. […]” for “proliferation.”

Assay [5] has the same test system. Put plainly: Stem cell stemness: colony formation (CFU-F, crystal violet) after pretreatment. As to conditions: for colonies formed (each 50 or more cells): 1,000 cells/dish, 21 days; for CFU-F increase: vs non-treated. As to the method:
as §1, §4, §6, §8, §10, §11, §12, §13
Mesenchymal stem cells and the exendin-4-pretreated mesenchymal stem cells of the Example were each seeded at a density of 1,000 cells/dish into 100-mm cell culture dishes containing […] of a culture medium [high glucose DMEM (Gibco, Cat no. 11995-065), 10% fetal bovine serum (HyClone), 1% MEM non-essential amino acids solution (100×) (Gibco, Cat no. 11140-050)] per dish and cultured for 21 days. The cell-attached dishes were washed twice with PBS, followed by fixation with 95% methanol at room temperature for about 2 min. The fixed cells were washed three times with PBS and stained with 0.5% crystal violet [(sigma, C-3886, USA) […], methanol 100 ml] for 5 min. After water washing and drying at room temperature, colonies, each composed of 50 or more cells, were counted for comparison.
Mesenchymal stem cells and the PMA-pretreated mesenchymal stem cells of the Example were each seeded at a density of 1,000 cells/dish into 100-mm cell culture dishes containing […] of a culture medium [high glucose DMEM (Gibco, Cat no. 11995-065), 10% fetal bovine serum (HyClone), 1% MEM non-essential amino acids solution (100×) (Gibco, Cat no. 11140-050)] per dish and cultured for 21 days. The cell-attached dishes were washed twice with PBS, followed by fixation with 95% methanol at room temperature for about 2 min. […]

Where [6] appears, read: 20 nM exendin-4 pretreatment one week.
The mark [7] stands for this setting: 30 nM substance P pretreatment one week.

Regarding exendin-4, in assay [1] (setting [6]), the “fold greater exosomal RNA than non-treated mesenchymal stem cells” value is given as “about 5.6 fold”. Besides, in assay [1] (20 nM exendin-4 pretreatment one week, non-treated 31.00), the “Exosomal RNA, yield per 10^6 cells” value was 174.34 ng. Further, in assay [2] (setting [6]), the “fold greater exosomal proteins than non-treated mesenchymal stem cells” value is reported as “about 5.4 fold”. The “Exosomal protein, yield per 10^6 cells” value in assay [2] (20 nM exendin-4 pretreatment one week, non-treated 2.00) turned out to be 10.69 μg. In addition, the “fold more exosomes than non-treated mesenchymal stem cells” value in assay [3] (setting [6]) is given as “about 5.85 fold”. In addition, the “No. of exosome particles, yield per 10^6 cells” value in assay [3] (20 nM exendin-4 pretreatment one week, non-treated 2.30) was 13.45 10^9. In addition, in assay [4] (setting [6]), the “increase in proliferation relative to non-treated mesenchymal stem cells” value is “about 340%” and the “proliferation ratio relative to non-treated mesenchymal stem cells (1)” value is reported as 3.4. Further, the “colonies formed (each 50 or more cells)” value in assay [5] (20 nM exendin-4 pretreatment one week, non-treated 28.6) was 185 colonies. In addition, in assay [5] (setting [6]), the CFU-F increase entry is “about 647%”.
Take “substance P (RPKPQQFFGLM; not fully specified; ends and bridges not checked; UniProt P20366 58-68, looked up) [undecapeptide of the tachykinin neuropeptide family acting on NK1 receptor; SubsP MSC-Exo = exosomes of treated mesenchymal stem cells]”: the “fold greater exosomal RNA than non-treated mesenchymal stem cells” value in assay [1] (setting [7]) is listed as “about 4.9 fold”. Besides, the “Exosomal RNA, yield per 10^6 cells” value in assay [1] (30 nM substance P pretreatment one week, non-treated 31.0) is 150.84 ng. Moreover, in assay [2] (setting [7]), the “fold greater exosomal proteins than non-treated mesenchymal stem cells” value is reported as “about 5.2 fold”. For the same substance, in assay [2] (30 nM substance P pretreatment one week, non-treated 2.0), the “Exosomal protein, yield per 10^6 cells” value is listed as 10.37 ug. For the same substance, the “fold more exosomes than non-treated mesenchymal stem cells” value in assay [3] (setting [7]) was “about 4.3 fold”. In addition, the “No. of exosome particles, yield per 10^6 cells” value in assay [3] (30 nM substance P pretreatment one week, non-treated 2.3) was 9.93 10^9. In addition, in assay [4] (setting [7]), the “increase in proliferation relative to non-treated mesenchymal stem cells” value is recorded as “about 290%” and the “proliferation ratio relative to non-treated mesenchymal stem cells (1)” value was determined as 2.9. Further, the “colonies formed (each 50 or more cells)” value in assay [5] (30 nM substance P pretreatment one week, non-treated 28.7) came to 116 colonies. The CFU-F increase entry in assay [5] (setting [7]) is listed as “about 404%”.

For the origin of these results see patent US20220195384A1, “COMPOSITION FOR PROMOTING PRODUCTION OF STEM CELL-DERIVED EXOSOMES AND INCREASING STEMNESS” (BREXOGEN INC., priority 2019, published 2022).
